“Also recorded” adds a separate entry of the source. Values belong to the molecule of their own block, whether it stands above or below them.
What was measured:
Format in all cases: physicochemical
[1] = Solubility in Fasted State Simulated Intestinal Fluid (FaSSIF) and final pH in solution, salt screen of compound I-2; details: for Final pH: final pH in solution of the FaSSIF solubility sample
Method: (§1) The free base of Compound I-1 (compound I-2, 30 mg) was suspended in IPA (20 Vol., 600 μl at 50° C.). The suspensions were then cooled down to 5° C. at 0.1° C./min and were held at this temperature for 16 hrs. Stirring (500 rpm) was maintained throughout. Any gums that formed were maturated between 25 and 50° C. (4 hours at each temperature for 24 hrs). The suspensions were isolated by filtration under suction and air dried then analysed by XRPD. Any new patterns identified by XRPD were analysed further by NMR, TGA, DSC and stability at 40 C/75% RH for 1 week.
Several samples were analyzed for solubility in Fasted State Simulated Intestinal Fluid (FaSSIF) and final pH in solution.

[2] = Storage at 40° C./75% RH for 7 days (one week), form checked by XRPD; details: 40° C./75% RH, one week (7 days)
Method: as §1, with “The” for “The free base of Compound I-1 (compound I-2, 30 mg) was suspended in IPA (20 Vol., 600 μl at 50° C.). The”

[3] = Solubility assessment in solvents by aliquot addition (5-40 vol, 25° C., then heating); details: for solubility in the solvents tested (in words): 13 solvents, up to 40 vol; for Observation after treatment: 40 vol
Method: Compound II-1 (40 mg) was treated with an aliquot of solvent (200 μl for 5 vol, 400 μl for 10 vol, 800 μl for 20 vol) and left to stir at 25° C. for 15 minutes. After 15 minutes, suspensions were treated with another aliquot of solvent and left to stir for the same duration again. Any solutions were removed from stirring and further solvent additions. This procedure was repeated up to 40 vol.
At 40 vol, any remaining suspensions were heated to 40° C. at a rate of 10° C./min. Samples that remained as suspensions at 40° C. were moved to the maturation chamber (RT/50° C.) for 4 days. All solutions from solvent additions were heated to 50° C. before cooling to 5° C. at a rate of 0.1° C./min, then held at 5° C. overnight. […]

[4] = Hygroscopicity suggested by Thermal Gravimetric Analysis (TGA) weight loss; details: suggested by TGA weight loss / 1H NMR solvent content
Method: Thermal Gravimetric Analysis (TGA): TGA data was collected on a TA Instruments Q5000 TGA. A predefined amount of the sample, 2.0 to 10.0 mg, was placed in an aluminum pan and heated at 10° C./minute from 40° C. to 300° C., or varied as experimentation dictated. A purge of dry nitrogen at 25 ml/minute was maintained over the sample. The instrument control and data acquisition are acquired using Q Advantage software release version 5.5.23. The data was processed and presented using the TA Universal Analysis 2000 software version 4.5A build 4.5.0.5.

[5] = Solubility measurements in SGF, FeSSIF and FaSSIF with XRPD of residual solids
From the text: The results from the solubility measurements in simulated gastric fluid (SGF), simulated fed state conditions in the small intestines (FeSSIF), and simulated fasting state conditions in the small intestines fluid (FaSSIF) are summarised in Table 12. The salts show reduced solubility in SGF compared to the free form.
Crystalline FB Form A, HCl Form A, and the sufate salt Form A were scaled up for solubility analysis.
HCl Form A was successfully scaled up for solubility analysis.

[6] = Solubility in organic solvents quoted in competitive suspension equilibration studies; details: organic solvent or mixture
[7] = listed as Compound III-1 Form A
[8] = listed as Compound III-1 Form B

- Solubility in FaSSIF ([1]; Fasted State Simulated Intestinal Fluid, solids from salt screen in IPA, listed as HBr - Form A): 4.5 µg/mL
- Final pH ([1]; listed as HBr - Form A): 5.5
Structure (SMILES): C=C(C)C(=O)Nc1ccc(-c2c(-c3ccc(Oc4nccc(C)n4)c(F)c3)c3c(N)ncnc3n2C)cc1 [Compound I-3]

- Solubility in FaSSIF ([1]; Fasted State Simulated Intestinal Fluid, solids from salt screen in IPA, listed as Mesylate - Form A): 6.5 µg/mL
- Final pH ([1]; listed as Mesylate - Form A): 4.82
Structure (SMILES): C=C(C)C(=O)Nc1ccc(-c2c(-c3ccc(Oc4nccc(C)n4)c(F)c3)c3c(N)ncnc3n2C)cc1 [Compound I-6]

Structure (SMILES): C=C(C)C(=O)Nc1ccc(-c2c(C3=CC[C@H](C(=O)N4CCCC4)CC3)c3c(N)ncnc3n2C)c(C)c1 [Compound II-1, (R)—N-(4-(4-amino-7-methyl-5-(4-(pyrrolidine-1-carbonyl)cyclohex-1-en-1-yl)-7H-pyrrolo[2,3-d]pyrimidin-6-yl)-3-methylphenyl)methacrylamide]
- XRPD after storage at 40° C./75% RH for 7 days ([2]; listed as Compound II-1 Form A): no change; also recorded: Unchanged
- XRPD after storage at 40° C./75% RH for 7 days ([2]; listed as Compound II-1 Form B): Unchanged
- solubility (solvent volumes to give a clear solution) ([3]; 10% H2O/IPA, 25° C.): 10 vol
- solubility in the solvents tested (in words) [3]: reasonable solubility in polar solvents
- solubility (solvent volumes to give a clear solution) ([3]; THF, 25° C.): 20 vol
- solubility (solvent volumes to give a clear solution) ([3]; ethanol, 25° C.): 20 vol
- hygroscopicity (in words) ([4]; listed as Compound 1 Pattern 2): hygroscopic
- hygroscopicity (in words) ([4]; listed as Compound II-1 Form A): slightly hygroscopic

- Solubility in FaSSIF ([1]; Fasted State Simulated Intestinal Fluid, solids from salt screen in IPA, listed as Sulfate - Form B): 1.2 µg/mL
- Final pH ([1]; listed as Sulfate - Form B): 5.86
Structure (SMILES): C=C(C)C(=O)Nc1ccc(-c2c(-c3ccc(Oc4nccc(C)n4)c(F)c3)c3c(N)ncnc3n2C)cc1 [Compound I-4]

- XRPD of residual solids after solubility measurement ([5]; all media (SGF, FeSSIF, FaSSIF)): remained unchanged
- solubility in FaSSIF (in words) ([5]; simulated fasting state intestinal fluid): lowest solubility
- XRPD after storage at 40° C./75% RH for 7 days [2, 7]: no change in form
- XRPD after storage at 40° C./75% RH for 7 days ([2]; listed as Compound III-1 Form C): no change in form
- Observation after treatment ([3]; 2-Propanol, after maturation (RT/50° C.) 4 days): Suspension
- Observation after treatment ([3]; 10% Water/IPA, after maturation (RT/50° C.) 4 days): Suspension
- Observation after treatment ([3]; 10% Water/MeCN, after cooling from 50° C. to 5° C.): Clear
- solubility (solvent volumes to give a clear solution) ([3]; 10% water/MeCN, 50° C.): 40 vol
- solubility in the solvents tested (in words) [3]: low solubility
- Observation after treatment ([3]; Acetone, after cooling from 50° C. to 5° C.): Very thin
- Observation after treatment ([3]; Ethanol, after maturation (RT/50° C.) 4 days): Suspension
- Observation after treatment ([3]; Ethyl acetate, after maturation (RT/50° C.) 4 days): Suspension
- Observation after treatment ([3]; Isopropyl acetate, after maturation (RT/50° C.) 4 days): Suspension
- Observation after treatment ([3]; MEK, after maturation (RT/50° C.) 4 days): Suspension
- Observation after treatment ([3]; Methanol, after cooling from 50° C. to 5° C.): Very thin
- Observation after treatment ([3]; TBME, after maturation (RT/50° C.) 4 days): Suspension
- solubility (solvent volumes to give a clear solution) ([3]; THF, 25° C.): 40 vol
- Observation after treatment ([3]; THF, after cooling from 50° C. to 5° C.): Clear
- Observation after treatment ([3]; Water, after maturation (RT/50° C.) 4 days): Suspension
- solubility (solvent volumes to give a clear solution) ([3]; acetone, 50° C.): 40 vol
- solubility (solvent volumes to give a clear solution) ([3]; methanol, 50° C.): 40 vol
- Observation after treatment ([3]; n-Heptane, after maturation (RT/50° C.) 4 days): Suspension
- hygroscopicity (in words) [4, 7]: potentially hygroscopic
- hygroscopicity (in words) [4, 8]: possibly hygroscopic
Structure (SMILES): C#Cc1cc(OC)c(-c2c(-c3ccc(Oc4nccc(C)n4)c(F)c3)c3c(C)ncnc3n2C)cn1 [Compound III-1, 6-(6-ethynyl-4-methoxypyridin-3-yl)-5-(3-fluoro-4-((4-methylpyrimidin-2-yl)oxy)phenyl)-4,7-dimethyl-7H-pyrrolo[2,3-d]pyrimidine]
- XRPD after storage at 40° C./75% RH for 7 days [2, 8]: conversion to Form A (plus additional peaks)

- Solubility ([1]; Fasted State Simulated Intestinal Fluid (FaSSIF), fassif, thermodynamic from solid, Fasted State Simulated Intestinal Fluid, solids from salt screen in IPA): 5.1 µg/mL
- Final pH [1]: 4.06
- Solubility ([6]; ethanol): 2.3 mg/mL
- Solubility ([6]; methanol): 18.7 mg/mL
Structure (SMILES): C=C(C)C(=O)Nc1ccc(-c2c(-c3ccc(Oc4nccc(C)n4)c(F)c3)c3c(N)ncnc3n2C)cc1.Cl [Compound I-1, N-(4-(4-amino-5-(3-fluoro-4-((4-methylpyrimidin-2-yl)oxy)phenyl)-7-methyl-7H-pyrrolo[2,3-d]pyrimidin-6-yl)phenyl)methacrylamide hydrochloride]

Structure (SMILES): C=C(C)C(=O)Nc1ccc(-c2c(C3=CC[C@H](C(=O)N4CCCC4)CC3)c3c(N)ncnc3n2C)c(C)c1.CS(=O)(=O)O [Compound II-5]
- XRPD after storage at 40° C./75% RH for 7 days [2]: no change
- hygroscopicity (in words) [4]: hygroscopic
